Experimental data reported in publication PMC3691182 (PLoS ONE, 2013).
Entries after “also recorded” stand apart in the source; their conditions may differ. Like-named read-outs stand apart in the source and are kept apart here.

How the values were obtained:
[1] = system: sodium channel; settings: cited from earlier work
From the text: Huwentoxin-IV (HWTX-IV), a tetrodotoxin-sensitive (TTX-s) sodium channel antagonist, is found in the venom of the Chinese spider Ornithoctonus huwena. A naturally modified HWTX-IV (mHWTX-IV), having a molecular mass 18 Da lower than HWTX-IV, has also been isolated from the venom of the same spider. […] Previous research has identified nearly 150 of these components in the Chinese bird spider, Ornithoctonus huwena, which is one of the most venomous spiders in China. […] To address this question, we adopted a triple-pulse protocol in which a test pulse (−10 mV) following a strong depolarization (+200 mV, 500 ms) was used to measure available TTX-S sodium currents.

[2] = system: DRG neuron; design: method as in PMID 16267209, PMID 19409400; settings: in words; ref [27], [28]; cited from earlier work
[3] = system: neuronal TTX-sensitive voltage-gated sodium channels; settings: cited from earlier work
[4] = system: TTX-S voltage-gated sodium channel of DRG neurons; experiment: Whole-cell patch-clamp, inhibition of TTX-S sodium currents in DRG neurons; type: cell-based, adult Sprague-Dawley rat
[5] = system: TTX-R sodium channel of DRG neurons; experiment: Whole-cell patch-clamp, TTX-R sodium currents in DRG neurons; type: cell-based, adult Sprague-Dawley rat
[6] = system: TTX-S sodium channels in rat DRG neurons; experiment: Time course for block of TTX-S currents and reversal of block on washing; type: cell-based
[7] = system: TTX-S sodium channels in rat DRG neurons; experiment: Current-voltage relationship, conductance, steady-state activation and inactivation of TTX-S sodium channel; type: cell-based
[8] = system: Nav1.7; experiment: Triple-pulse protocol, recovery of Nav1.7 current following strong depolarization (HEK293 cells); type: cell-based
[9] = system: TTX-resistant voltage-gated sodium channels; settings: in words; reference not given; cited from earlier work
From the text: Previous research has identified nearly 150 of these components in the Chinese bird spider, Ornithoctonus huwena, which is one of the most venomous spiders in China. Most of the toxins have six cystine residues adopting inhibitor cystine-knot (ICK) motif with a 1–4, 2–5, 3–6 disulfide bonding pattern; the biological activities of some peptide toxins were thoroughly investigated.

[10] = system: domain II of Nav1.7; settings: in words; ref [11]; cited from earlier work

In the case of ProTx-II, the “Reversal of binding to sodium channels by strong depolarization (literature)” value ([1]; in words, ref [11], [19], [20]) is given as “can be reversed by strong depolarization”.
In the case of Jingzhaotoxin-IX [JZTX-IX], the “Action under extreme depolarization on DRG neuron compared with mHWTX-IV” value [2] is given as “similar”.
In the case of jingzhaotoxin-34 [JZTX-34], the “Inhibition of neuronal TTX-sensitive sodium channels (literature)” value ([3]; in words, ref [9]) is given as “inhibited neuronal TTX-sensitive voltage-gated sodium channels”.
In the case of Huwentoxin-IV [HWTX-IV], the IC50 [4] is reported as 0.0429 ± 0.00172 µM, the “Inhibition of TTX-S currents” value [4] is reported as “almost completely inhibited; also recorded: significantly reduced” and the “Effect on TTX-R sodium currents” value [5] is reported as “no effect”. For the same substance, the “Dissociation after washing, in words” value [6] was “slowly dissociated”, the “Time course for inhibition of TTX-S currents” value [6] was 25.4 s and the “Time course of dissociation after washing” value [6] was 88.3 s. For the same substance, the “Channel conductance (conductance–voltage curve)” value [7] was “did not change channel conductance”, the “Steady-state activation and inactivation, comparison of HWTX-IV and mHWTX-IV” value [7] was “no obvious difference” and the “Steady-state inactivation of TTX-S sodium channel” value [7] was “No shift of the steady-state inactivation curve”. The “Threshold of activation and reversal potential of TTX-S sodium channel (I–V)” value [7] was “did not change the threshold of activation and alter the reversal potential”, the “Recovery of Nav1.7 current, +50 mV” value ([8]; 1 µM toxin, HEK293 cells, +50 mV for 500 ms, in words) was “little recovery” and the “Recovery of Nav1.7 current, +100 mV” value ([8]; 1 µM toxin, HEK293 cells, +100 mV for 500 ms, in words) was “little recovery”. The “Recovery of Nav1.7 current, +150 mV” value ([8]; 1 µM toxin, HEK293 cells, +150 mV, five cells) was “about 34%”, the “Recovery of Nav1.7 current, +200 mV” value ([8]; 1 µM toxin, HEK293 cells, +200 mV, five cells) was roughly 78% and the “Recovery of Nav1.7 current by extreme depolarization (summary)” value ([8]; abstract summary, in words) was “voltage-dependent and was induced by extreme depolarization”. For the same substance, the “Inhibition of TTX-S sodium channel in DRG neurons (literature)” value [3] was “specifically inhibited”, the IC50 ([3]; read-out: IC50, inhibition of neuronal TTX-sensitive sodium channels (literature)) was 0.03 µM and the “Effect on TTX-resistant sodium channels (literature)” value [9] was “no significant effect”. For the same substance, the “Dissociation at moderate depolarization” value [1] was “dissociates at moderate voltage depolarization voltages”, the “Reversal of binding to sodium channels by strong depolarization (literature)” value [1] was “can be reversed by strong depolarization” and the “Reversibility of inhibition by strong depolarization (literature)” value [1] was “reversible by strong depolarization”. The “Voltage above which currents can be observed (dissociation by strong depolarization)” value [1] was greater than 70 mV and the “Binding site on Nav1.7” value [10] was “binds with the S3–S4 linker D816 and E818 in domain II of Nav1.7 by electrostatic interaction”.
